ChEMBL document CHEMBL4190333, “Cyclic Biphalin Analogues Incorporating a Xylene Bridge: Synthesis, Characterization, and Biological Profile” (ACS Med Chem Lett, 2017)
Calls of active or inactive are those of the source. The rule behind the calls is not given here. Starred links: 1 amine or outer side, 2 acyl side, 3 side chain; linkers in the order of their positions; H or OH if unused. Positions of bridges follow the written chain, without caps; N, C: chain ends. Non-standard residues stand in square brackets, D forms with d. Residues, ends and D or L forms follow the SMILES beside them. Chains are numbered I, II in the order given. NHNH = N(N[*:2])[*:1]

What was measured:
Mu-type opioid receptor [1] = molecular target: Mu-type opioid receptor (Rattus norvegicus, UniProt P33535); experiment: Displacement of [3H]DAMGO from MOR in Wistar rat whole brain membranes after 45 mins by liquid scintillation counting method; assay type: cell membranes, Membrane
[2] = molecular target: Delta-type opioid receptor (Rattus norvegicus, UniProt P33533); experiment: Displacement of [3H]lleDelt2 from DOR in Wistar rat whole brain membranes after 45 mins by liquid scintillation counting method; assay type: cell membranes, Membrane
Rattus norvegicus [3] = species: Rattus norvegicus; experiment: Selectivity ratio of Ki for displacement of [3H]lleDelt2 from DOR in Wistar rat whole brain membranes to displacement of [3H]DAMGO from MOR in Wistar rat whole brain membranes; assay type: cell membranes
[4] = (§1) Agonist activity at heteromeric G-protein in Wistar rat whole brain membranes after 30 mins by [35S]GTPgammaS binding assay; assay type: cell membranes, Membrane
Rattus norvegicus [5] = species: Rattus norvegicus; experiment: as §1; assay type: cell membranes; details: Membrane
Mus musculus [6] = experiment: Antinociceptive activity in Harlan CD-1 mouse model of thermal-induced nociception assessed as increase in latency to tail withdrawal at 0.01 nmol, icv measured after 15 to 120 mins by tail flick test; assay type: functional, organism-based
Mus musculus [7] = species: Mus musculus; experiment: Antinociceptive activity in Harlan CD-1 mouse model of thermal-induced nociception assessed as increase in latency to tail withdrawal at 0.01 nmol, i.t measured after 15 to 120 mins by tail flick test; assay type: functional, organism-based
Mus musculus [8] = experiment: Analgesic activity in formalin-induced nociception Harlan CD-1 mouse model assessed as reduction in time spent in licking or biting formalin injected hind paw during neurogenic phase at 0.1 nmol, sc pretreated for 15 mins followed by formalin induction measured up to 10 mins; assay type: functional, organism-based
Mus musculus [9] = experiment: Analgesic activity in formalin-induced nociception Harlan CD-1 mouse model assessed as reduction in time spent in licking or biting formalin injected hind paw during inflammatory phase at 0.1 nmol, sc pretreated for 15 mins followed by formalin induction measured after 15 to 40 mins; assay type: functional, organism-based
[10] = Half life in human plasma at 100 ug/ml by HPLC method; assay type: ADME, cell-free
Mu-type opioid receptor [11] = molecular target: Mu-type opioid receptor (Homo sapiens, UniProt P35372); experiment: Binding affinity to MOR (unknown origin)
Mus musculus [12] = experiment: Antinociceptive activity in Harlan CD-1 mouse model of thermal-induced nociception assessed as increase in latency to tail withdrawal at 0.01 nmol, icv measured after 45 to 90 mins by tail flick test; assay type: functional, organism-based
Mus musculus [13] = species: Mus musculus; experiment: Antinociceptive activity in Harlan CD-1 mouse model of thermal-induced nociception assessed as increase in latency to tail withdrawal at 0.01 nmol, i.t measured after 45 to 120 mins by tail flick test; assay type: functional, organism-based

Delta-type opioid receptor, sequence (P33533 whole entry): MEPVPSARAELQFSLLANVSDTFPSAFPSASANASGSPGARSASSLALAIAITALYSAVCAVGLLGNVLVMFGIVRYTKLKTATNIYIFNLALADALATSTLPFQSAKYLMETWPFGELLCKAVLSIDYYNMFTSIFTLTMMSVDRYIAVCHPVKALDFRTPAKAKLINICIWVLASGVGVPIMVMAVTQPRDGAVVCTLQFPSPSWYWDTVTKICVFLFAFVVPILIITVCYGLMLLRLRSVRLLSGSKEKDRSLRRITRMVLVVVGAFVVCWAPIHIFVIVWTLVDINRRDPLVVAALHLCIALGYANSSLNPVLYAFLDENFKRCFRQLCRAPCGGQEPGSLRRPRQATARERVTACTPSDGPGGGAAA
Mu-type opioid receptor (Rattus norvegicus, UniProt P33535), sequence (P33535 whole entry): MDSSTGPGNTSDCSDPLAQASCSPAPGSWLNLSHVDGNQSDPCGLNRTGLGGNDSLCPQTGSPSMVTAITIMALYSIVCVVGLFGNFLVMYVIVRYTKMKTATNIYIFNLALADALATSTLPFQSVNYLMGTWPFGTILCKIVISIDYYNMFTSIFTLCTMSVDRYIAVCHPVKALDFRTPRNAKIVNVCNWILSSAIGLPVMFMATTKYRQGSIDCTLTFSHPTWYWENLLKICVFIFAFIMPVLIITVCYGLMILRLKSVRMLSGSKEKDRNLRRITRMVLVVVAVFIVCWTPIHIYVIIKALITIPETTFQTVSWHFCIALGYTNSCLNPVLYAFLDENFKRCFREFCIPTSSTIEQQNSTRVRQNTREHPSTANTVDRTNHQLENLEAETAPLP
Mu-type opioid receptor (Homo sapiens, UniProt P35372), sequence (P35372 whole entry): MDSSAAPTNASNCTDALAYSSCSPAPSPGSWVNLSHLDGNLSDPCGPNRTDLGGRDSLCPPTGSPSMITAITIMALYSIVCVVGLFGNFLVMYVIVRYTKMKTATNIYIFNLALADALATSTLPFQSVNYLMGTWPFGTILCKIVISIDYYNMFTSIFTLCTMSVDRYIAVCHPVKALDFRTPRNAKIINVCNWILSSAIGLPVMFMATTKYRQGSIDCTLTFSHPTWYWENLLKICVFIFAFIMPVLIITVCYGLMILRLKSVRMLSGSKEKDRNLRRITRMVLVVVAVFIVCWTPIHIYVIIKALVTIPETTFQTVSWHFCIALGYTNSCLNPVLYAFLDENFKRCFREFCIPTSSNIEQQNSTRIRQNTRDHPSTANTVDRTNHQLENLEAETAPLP

## N[C@@H](Cc1ccc(O)cc1)C(=O)N[C@@H]1CSCc2cccc(c2)CSC[C@@H](NC(=O)[C@@H](N)Cc2ccc(O)cc2)C(=O)NCC(=O)N[C@@H](Cc2ccccc2)C(=O)NNC(=O)[C@H](Cc2ccccc2)NC(=O)CNC1=O
Mu-type opioid receptor [1]
  Ki: 1.73 nM
[2]
  Ki: 3.81 nM
Rattus norvegicus [3]
  Ratio Ki: 2.2
[4]
  EC50: 213 nM
Rattus norvegicus [5]
  Emax: 160%
Mus musculus [6]
  Activity: Active
Mus musculus [7]
  Activity: Active
Mus musculus [8]
  Activity: Active
Mus musculus [9]
  Activity: Active

## C[C@@H](NC(=O)[C@@H](N)Cc1ccc(O)cc1)C(=O)NCC(=O)N[C@@H](Cc1ccccc1)C(=O)NNC(=O)[C@H](Cc1ccccc1)NC(=O)CNC(=O)[C@@H](C)NC(=O)[C@@H](N)Cc1ccc(O)cc1 [BIPHALIN]
Mu-type opioid receptor [1]
  Ki: 0.79 nM
[2]
  Ki: 3.5 nM
[4]
  EC50: 75.4 nM
Rattus norvegicus [5]
  Emax: 177%
Mus musculus [8]
  Activity: Active
Mus musculus [9]
  Activity: Active
[10]
  half-life at 100 ug/ml: 0.55 h
Mu-type opioid receptor [11]
  EC50: 1 to 4 nM

## N[C@@H](Cc1ccc(O)cc1)C(=O)N[C@@H]1CSSC[C@@H](NC(=O)[C@@H](N)Cc2ccc(O)cc2)C(=O)NCC(=O)N[C@@H](Cc2ccccc2)C(=O)NNC(=O)[C@H](Cc2ccccc2)NC(=O)CNC1=O (I: H-Y[dC]GF / II: H-Y[dC]GF; disulfide I:2-II:2; linker I:C-II:C via NHNH)
Mu-type opioid receptor [1]
  Ki: 6.06 nM
[2]
  Ki: 5.25 nM
Rattus norvegicus [3]
  Ratio Ki: 0.9
[4]
  EC50: 508 nM
Rattus norvegicus [5]
  Emax: 146%

## N[C@@H](Cc1ccc(O)cc1)C(=O)N[C@@H]1CSCc2ccccc2CSC[C@@H](NC(=O)[C@@H](N)Cc2ccc(O)cc2)C(=O)NCC(=O)N[C@@H](Cc2ccccc2)C(=O)NNC(=O)[C@H](Cc2ccccc2)NC(=O)CNC1=O.O=C(O)C(F)(F)F.O=C(O)C(F)(F)F
Mu-type opioid receptor [1]
  Ki: 1.33 nM
[2]
  Ki: 2.26 nM
Rattus norvegicus [3]
  Ratio Ki: 1.8
[4]
  EC50: 247 nM
Rattus norvegicus [5]
  Emax: 137%
Mus musculus [12]
  Activity: Active
Mus musculus [13]
  Activity: Active
Mus musculus [8]
  Activity: Active
Mus musculus [9]
  Activity: Active
[10]
  half-life at 100 ug/ml: 1.45 h

## N[C@@H](Cc1ccc(O)cc1)C(=O)N[C@@H]1CSCc2ccc(cc2)CSC[C@@H](NC(=O)[C@@H](N)Cc2ccc(O)cc2)C(=O)NCC(=O)N[C@@H](Cc2ccccc2)C(=O)NNC(=O)[C@H](Cc2ccccc2)NC(=O)CNC1=O
Mu-type opioid receptor [1]
  Ki: 1.61 nM
[2]
  Ki: 2.52 nM
Rattus norvegicus [3]
  Ratio Ki: 1.5
[4]
  EC50: 87.4 nM
Rattus norvegicus [5]
  Emax: 150%
Mus musculus [6]
  Activity: Active
Mus musculus [7]
  Activity: Active
Mus musculus [8]
  Activity: Active
Mus musculus [9]
  Activity: Active
